In paper PMC7316778 (Nature Communications, 2020):
Several values for one entry are separate records, joined by “and”; a condition that tells them apart may be missing. Equal entries are not always repeated. Where two headings read alike, the source gives them in different places.

What was measured:
[1] = target: T1, endogenous FES^S700C in HL-60 cells (Homo sapiens, UniProt P07332, S700C); assay: Gel-based target engagement during PMA-induced macrophage differentiation; type: cell-based; settings: for Relative FES labeling (%): Figure 6b
T1 construct: endogenous in cells; host or cells: HL-60 FES^S700C clone, differentiated to macrophages or neutrophils
Protocol: Cells were pretreated with vehicle or WEL028 (100 or 1000 nM, 1 h) prior to induction of differentiation towards monocytes/macrophages with PMA (16 nM, 48 h). Medium was refreshed with growth medium containing WEL028 and PMA after 24 h to maintain full FES inhibition. […] Threshold for CD11b-positive cells was determined using isotype control antibody. […] Kinases with native cysteine at DFG-1 position are shown in bold. All data represent means ± SEM.

FES^S700C HL-60 cells = assay: Proliferation ratio during neutrophil differentiation; type: cell-based, human; settings: 100 nM; Supplementary Figure 12d; individual replicates; listed as WEL028
AMPK A2/B1/G1 = AMPK A2/B1/G1 (Homo sapiens, UniProt P54646); assay: SelectScreen kinase assay
Protocol: (§1) Selectivity profiling assays were performed by the Invitrogen SelectScreen™ Services. […] The concentration of ATP was selected to be equal to the KM, unless indicated otherwise.

FGFR4 = FGFR4 (Homo sapiens, UniProt P22455); assay: SelectScreen kinase assay
Protocol: as §1

ICK = ICK (Homo sapiens, UniProt Q9UPZ9); assay: SelectScreen kinase assay
Protocol: as §1

INSR = INSR (Homo sapiens, UniProt P06213); assay: SelectScreen kinase assay
Protocol: as §1

MAP4K5 (KHS1) = MAP4K5 (KHS1) (Homo sapiens, UniProt Q9Y4K4); assay: SelectScreen kinase assay; settings: 1 h, 1 μM WEL028, 1 h preincubation
Protocol: as §1

MYLK2 (skMLCK) = MYLK2 (skMLCK) (Homo sapiens, UniProt Q9H1R3); assay: SelectScreen kinase assay; settings: for Inhibition at 1 µM (%): MYLK2 (skMLCK), ZLYTE, ATP Km app
Protocol: as §1

[2] = target: PIK3CB/PIK3R2 (p110 beta/p85 beta) (Homo sapiens, UniProt P42338); assay: SelectScreen kinase assay
Protocol: as §1

PIM3 = PIM3 (Homo sapiens, UniProt Q86V86); assay: SelectScreen kinase assay
Protocol: as §1

RPS6KA1 (RSK1) = RPS6KA1 (RSK1) (Homo sapiens, UniProt Q15418); assay: SelectScreen kinase assay
Protocol: as §1

SGK (SGK1) = target: T2, SGK (SGK1) (Homo sapiens, UniProt O00141); assay: SelectScreen kinase assay
T2 sequence (O00141 1-431): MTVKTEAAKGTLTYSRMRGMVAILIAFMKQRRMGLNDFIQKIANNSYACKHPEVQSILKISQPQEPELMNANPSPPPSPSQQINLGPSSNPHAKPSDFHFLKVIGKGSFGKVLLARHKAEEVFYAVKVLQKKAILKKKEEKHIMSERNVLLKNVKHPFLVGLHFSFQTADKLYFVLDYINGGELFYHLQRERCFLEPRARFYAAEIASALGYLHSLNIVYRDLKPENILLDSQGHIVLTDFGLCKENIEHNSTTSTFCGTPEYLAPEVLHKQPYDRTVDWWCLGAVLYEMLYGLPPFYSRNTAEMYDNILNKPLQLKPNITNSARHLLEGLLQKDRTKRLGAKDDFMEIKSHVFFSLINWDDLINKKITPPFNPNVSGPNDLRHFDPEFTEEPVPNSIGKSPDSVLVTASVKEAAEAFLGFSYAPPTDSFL
Protocol: as §1

SIK3 = SIK3 (Homo sapiens, UniProt Q9Y2K2); assay: SelectScreen kinase assay
Protocol: as §1

STK24 (MST3) = STK24 (MST3) (Homo sapiens, UniProt Q9Y6E0); assay: SelectScreen kinase assay
Protocol: as §1

TEC = target: T3, TEC (Homo sapiens, UniProt P42680); assay: SelectScreen kinase assay; settings: for Inhibition at 1 µM (%): LanthaScreen Binding
T3 sequence (P42680 1-631): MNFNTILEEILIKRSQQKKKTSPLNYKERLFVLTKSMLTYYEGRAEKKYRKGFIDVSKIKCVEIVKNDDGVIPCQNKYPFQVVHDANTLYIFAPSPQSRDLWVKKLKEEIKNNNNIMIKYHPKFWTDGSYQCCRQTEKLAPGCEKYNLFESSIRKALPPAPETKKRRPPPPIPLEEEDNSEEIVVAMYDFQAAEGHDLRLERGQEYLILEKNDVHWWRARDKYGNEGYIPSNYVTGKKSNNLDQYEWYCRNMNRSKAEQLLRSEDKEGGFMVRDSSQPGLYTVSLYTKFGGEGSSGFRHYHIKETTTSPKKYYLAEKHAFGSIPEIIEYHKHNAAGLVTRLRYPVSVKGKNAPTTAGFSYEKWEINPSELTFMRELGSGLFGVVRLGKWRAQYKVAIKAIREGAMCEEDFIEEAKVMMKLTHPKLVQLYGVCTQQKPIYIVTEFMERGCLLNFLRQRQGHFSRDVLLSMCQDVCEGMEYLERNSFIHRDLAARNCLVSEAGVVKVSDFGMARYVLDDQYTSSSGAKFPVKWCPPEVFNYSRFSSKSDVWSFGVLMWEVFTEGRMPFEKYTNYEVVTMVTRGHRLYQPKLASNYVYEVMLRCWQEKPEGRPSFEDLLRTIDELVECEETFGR
Protocol: as §1

TNIK = TNIK (Homo sapiens, UniProt Q9UKE5); assay: SelectScreen kinase assay
Protocol: as §1

FER^WT = FER^WT (Homo sapiens, UniProt P16591); assay: In vitro TR-FRET kinase assay
[3] = 1 h, 1 μM WEL028, 1 h preincubation
[4] = 1 µM, ZLYTE, ATP Km app, listed as WEL028, 1 µM
[5] = read-out: Inhibition at 1 µM (%), 1 µM, ZLYTE, ATP Km app
[6] = 1 µM, LanthaScreen Binding, listed as WEL028, 1 µM

Sequence of RPS6KA1 (RSK1) (Q15418 whole entry): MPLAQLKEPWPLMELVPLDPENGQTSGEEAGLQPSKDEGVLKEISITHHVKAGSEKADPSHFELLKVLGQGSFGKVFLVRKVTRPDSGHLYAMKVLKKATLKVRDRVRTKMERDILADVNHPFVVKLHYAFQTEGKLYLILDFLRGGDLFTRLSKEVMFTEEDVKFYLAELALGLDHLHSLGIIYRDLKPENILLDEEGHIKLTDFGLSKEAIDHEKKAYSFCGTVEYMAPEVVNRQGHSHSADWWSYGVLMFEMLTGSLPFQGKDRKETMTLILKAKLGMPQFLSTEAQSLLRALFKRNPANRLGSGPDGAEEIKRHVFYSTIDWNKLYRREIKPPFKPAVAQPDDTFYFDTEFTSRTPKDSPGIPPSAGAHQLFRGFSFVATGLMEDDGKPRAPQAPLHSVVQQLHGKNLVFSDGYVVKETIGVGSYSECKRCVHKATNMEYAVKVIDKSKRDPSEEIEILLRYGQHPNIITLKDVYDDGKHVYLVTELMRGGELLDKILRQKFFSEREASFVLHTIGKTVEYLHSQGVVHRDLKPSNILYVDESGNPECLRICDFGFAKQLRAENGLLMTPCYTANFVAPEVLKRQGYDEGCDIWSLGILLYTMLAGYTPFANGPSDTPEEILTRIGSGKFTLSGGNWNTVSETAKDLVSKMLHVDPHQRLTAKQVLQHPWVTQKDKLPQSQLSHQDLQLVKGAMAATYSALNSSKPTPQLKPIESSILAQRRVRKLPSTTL
T1 sequence (P07332 whole entry S700C): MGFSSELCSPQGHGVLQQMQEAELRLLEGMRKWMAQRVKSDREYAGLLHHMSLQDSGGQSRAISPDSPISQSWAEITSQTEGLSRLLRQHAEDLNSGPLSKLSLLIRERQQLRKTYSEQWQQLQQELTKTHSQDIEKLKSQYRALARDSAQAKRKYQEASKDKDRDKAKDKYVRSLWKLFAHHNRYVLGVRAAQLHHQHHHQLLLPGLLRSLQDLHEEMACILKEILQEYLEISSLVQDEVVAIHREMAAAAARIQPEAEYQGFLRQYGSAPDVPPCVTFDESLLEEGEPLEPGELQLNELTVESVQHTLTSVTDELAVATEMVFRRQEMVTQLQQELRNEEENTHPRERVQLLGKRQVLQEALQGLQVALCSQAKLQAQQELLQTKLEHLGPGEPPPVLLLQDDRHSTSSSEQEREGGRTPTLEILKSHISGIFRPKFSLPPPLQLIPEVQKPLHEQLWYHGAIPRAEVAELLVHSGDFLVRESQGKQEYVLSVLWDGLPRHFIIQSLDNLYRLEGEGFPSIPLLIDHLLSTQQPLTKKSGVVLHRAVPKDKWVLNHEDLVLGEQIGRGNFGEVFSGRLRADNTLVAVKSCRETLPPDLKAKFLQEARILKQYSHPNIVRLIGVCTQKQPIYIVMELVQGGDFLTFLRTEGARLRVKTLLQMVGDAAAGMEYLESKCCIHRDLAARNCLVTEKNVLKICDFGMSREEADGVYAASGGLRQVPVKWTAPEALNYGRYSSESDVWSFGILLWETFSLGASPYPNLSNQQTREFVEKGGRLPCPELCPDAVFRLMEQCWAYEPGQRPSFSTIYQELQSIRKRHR
Sequence of TNIK (Q9UKE5 whole entry): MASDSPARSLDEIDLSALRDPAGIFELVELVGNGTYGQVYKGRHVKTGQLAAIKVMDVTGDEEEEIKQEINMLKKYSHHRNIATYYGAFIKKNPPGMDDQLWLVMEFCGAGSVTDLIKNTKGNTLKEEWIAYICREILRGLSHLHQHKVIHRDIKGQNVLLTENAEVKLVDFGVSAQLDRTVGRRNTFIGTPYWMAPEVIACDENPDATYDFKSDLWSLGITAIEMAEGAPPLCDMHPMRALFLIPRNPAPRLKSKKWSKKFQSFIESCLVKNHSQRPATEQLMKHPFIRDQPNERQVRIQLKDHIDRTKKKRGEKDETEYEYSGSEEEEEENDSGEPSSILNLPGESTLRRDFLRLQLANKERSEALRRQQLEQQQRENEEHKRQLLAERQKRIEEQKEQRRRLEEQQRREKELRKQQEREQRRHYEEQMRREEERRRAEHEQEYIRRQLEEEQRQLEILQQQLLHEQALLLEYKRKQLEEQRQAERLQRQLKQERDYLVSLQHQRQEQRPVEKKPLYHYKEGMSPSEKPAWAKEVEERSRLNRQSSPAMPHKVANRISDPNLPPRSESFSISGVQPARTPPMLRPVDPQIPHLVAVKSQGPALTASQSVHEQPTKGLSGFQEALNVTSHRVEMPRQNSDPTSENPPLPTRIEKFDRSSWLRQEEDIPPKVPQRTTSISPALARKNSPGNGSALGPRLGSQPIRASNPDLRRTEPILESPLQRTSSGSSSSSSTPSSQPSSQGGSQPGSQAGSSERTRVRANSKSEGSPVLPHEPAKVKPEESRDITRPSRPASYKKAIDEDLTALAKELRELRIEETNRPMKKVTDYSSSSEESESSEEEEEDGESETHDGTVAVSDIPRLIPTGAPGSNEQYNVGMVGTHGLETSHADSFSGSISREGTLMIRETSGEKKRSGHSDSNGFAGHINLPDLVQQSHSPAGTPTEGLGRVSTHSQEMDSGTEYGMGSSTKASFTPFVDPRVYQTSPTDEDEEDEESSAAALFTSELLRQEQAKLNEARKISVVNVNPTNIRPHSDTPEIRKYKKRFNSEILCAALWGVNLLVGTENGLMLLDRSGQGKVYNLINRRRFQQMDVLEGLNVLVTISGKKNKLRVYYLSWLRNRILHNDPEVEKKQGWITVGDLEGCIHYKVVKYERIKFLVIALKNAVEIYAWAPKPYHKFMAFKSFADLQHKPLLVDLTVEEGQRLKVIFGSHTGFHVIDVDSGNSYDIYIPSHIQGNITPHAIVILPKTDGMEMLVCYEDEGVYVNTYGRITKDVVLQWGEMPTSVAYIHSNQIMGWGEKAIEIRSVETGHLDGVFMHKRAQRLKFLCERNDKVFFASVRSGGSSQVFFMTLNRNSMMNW
Sequence of STK24 (MST3) (Q9Y6E0 whole entry): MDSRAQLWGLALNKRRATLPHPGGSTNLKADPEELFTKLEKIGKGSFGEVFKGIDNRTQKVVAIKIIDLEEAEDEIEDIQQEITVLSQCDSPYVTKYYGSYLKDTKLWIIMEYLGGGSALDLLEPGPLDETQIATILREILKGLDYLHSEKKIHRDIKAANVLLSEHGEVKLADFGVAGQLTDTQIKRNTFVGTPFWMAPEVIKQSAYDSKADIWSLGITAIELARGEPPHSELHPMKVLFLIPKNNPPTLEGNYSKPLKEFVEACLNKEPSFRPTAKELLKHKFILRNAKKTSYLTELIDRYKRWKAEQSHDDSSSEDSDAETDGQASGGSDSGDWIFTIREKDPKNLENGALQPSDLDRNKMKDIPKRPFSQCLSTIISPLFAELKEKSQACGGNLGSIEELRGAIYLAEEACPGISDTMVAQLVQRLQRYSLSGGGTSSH
Sequence of MYLK2 (skMLCK) (Q9H1R3 whole entry): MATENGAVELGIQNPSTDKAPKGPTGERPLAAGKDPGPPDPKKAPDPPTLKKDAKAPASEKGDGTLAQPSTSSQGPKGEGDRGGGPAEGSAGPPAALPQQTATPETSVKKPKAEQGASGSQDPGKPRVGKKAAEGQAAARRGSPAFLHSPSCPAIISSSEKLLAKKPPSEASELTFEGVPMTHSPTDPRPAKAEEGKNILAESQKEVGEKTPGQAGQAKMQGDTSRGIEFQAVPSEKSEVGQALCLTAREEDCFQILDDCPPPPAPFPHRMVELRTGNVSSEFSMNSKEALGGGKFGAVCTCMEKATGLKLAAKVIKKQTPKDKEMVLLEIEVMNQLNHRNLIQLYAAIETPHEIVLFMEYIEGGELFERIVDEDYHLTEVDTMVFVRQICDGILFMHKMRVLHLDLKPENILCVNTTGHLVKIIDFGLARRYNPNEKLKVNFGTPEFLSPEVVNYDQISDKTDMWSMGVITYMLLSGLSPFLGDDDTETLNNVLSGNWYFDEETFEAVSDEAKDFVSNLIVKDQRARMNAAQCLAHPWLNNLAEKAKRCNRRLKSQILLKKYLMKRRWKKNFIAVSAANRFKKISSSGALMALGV
Sequence of FGFR4 (P22455 22-802): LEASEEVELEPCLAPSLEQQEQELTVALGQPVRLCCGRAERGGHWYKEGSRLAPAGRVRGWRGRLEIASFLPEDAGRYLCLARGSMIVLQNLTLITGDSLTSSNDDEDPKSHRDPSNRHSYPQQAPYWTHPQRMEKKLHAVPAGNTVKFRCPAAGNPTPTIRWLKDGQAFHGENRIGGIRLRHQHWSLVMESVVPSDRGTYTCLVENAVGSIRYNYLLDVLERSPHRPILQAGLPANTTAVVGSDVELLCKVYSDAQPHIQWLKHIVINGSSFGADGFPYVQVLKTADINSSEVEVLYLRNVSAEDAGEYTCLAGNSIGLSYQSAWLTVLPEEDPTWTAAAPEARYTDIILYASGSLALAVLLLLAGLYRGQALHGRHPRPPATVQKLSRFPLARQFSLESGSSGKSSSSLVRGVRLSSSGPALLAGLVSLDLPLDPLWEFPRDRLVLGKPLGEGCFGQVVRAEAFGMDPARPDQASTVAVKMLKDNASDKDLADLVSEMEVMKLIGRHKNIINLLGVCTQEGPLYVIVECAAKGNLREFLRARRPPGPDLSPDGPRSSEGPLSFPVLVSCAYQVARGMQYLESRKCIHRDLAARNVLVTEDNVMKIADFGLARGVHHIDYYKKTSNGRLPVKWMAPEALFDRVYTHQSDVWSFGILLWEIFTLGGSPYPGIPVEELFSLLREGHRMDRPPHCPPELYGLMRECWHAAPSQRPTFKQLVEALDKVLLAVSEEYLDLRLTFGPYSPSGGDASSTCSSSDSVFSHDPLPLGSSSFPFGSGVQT

SMILES: C#CCOc1ccc(Nc2ncc(Cl)c(Nc3ccccc3NC(=O)C=C)n2)c(OC)c1 [Compound 6]
- Target engagement of engineered FES ([1]; 100 nM WEL028 during PMA-induced differentiation): full target engagement
- Relative FES labeling (%) ([1]; WEL028 100 nM): 6.297% and 1.811% and 0.4549%
- Relative FES labeling (%) ([1]; WEL028 1 µM): -1.423% and -3.177% and -0.4317%
- Proliferation ratio (FES^S700C HL-60 cells): 1.625 and 1.925 and 1.9
- inhibition at 1 µM (AMPK A2/B1/G1; [3]): 4%
- Inhibition at 1 µM (%) (AMPK A2/B1/G1; AMPK A2/B1/G1, 1 µM, ZLYTE, ATP Km app): -2%
- inhibition at 1 µM (FGFR4; [3]): 34%
- Inhibition at 1 µM (%) (FGFR4; FGFR4, 1 µM, ZLYTE, ATP Km app, listed as WEL028, 1 µM): 38%
- inhibition at 1 µM (FGFR4; read-out: Inhibition at 1 µM (%), FGFR4, 1 µM, ZLYTE, ATP Km app): 31%
- inhibition at 1 µM (ICK; [3]): 7%
- inhibition at 1 µM (ICK; read-out: Inhibition at 1 µM (%), ICK, 1 µM, LanthaScreen Binding): 8%
- inhibition at 1 µM (INSR; 1 h): 11%
- inhibition at 1 µM (INSR; read-out: Inhibition at 1 µM (%)): 11%
- inhibition at 1 µM (MAP4K5 (KHS1)): -5%
- inhibition at 1 µM (MYLK2 (skMLCK); [3]): -3%
- Inhibition at 1 µM (%) (MYLK2 (skMLCK)): 2%
- Inhibition at 1 µM (%) (MYLK2 (skMLCK); listed as WEL028, 1 µM): -8%
- inhibition at 1 µM [2, 3]: 2%
- Inhibition at 1 µM (%) ([2]; PIK3CB/PIK3R2 (p110 beta/p85 beta), 1 µM, Adapta, ATP 10, listed as WEL028, 1 µM): 4% and -1%
- inhibition at 1 µM (PIM3; [3]): 0%
- Inhibition at 1 µM (%) (PIM3; PIM3, 1 µM, ZLYTE, ATP Km app, listed as WEL028, 1 µM): -1% and 1%
- Inhibition at 1 µM (%) (RPS6KA1 (RSK1); [4]): 0% and 10%
- inhibition at 1 µM (RPS6KA1 (RSK1); [3]): 5%
- Inhibition at 1 µM (%) (SGK (SGK1); [4]): 9%
- inhibition at 1 µM (SGK (SGK1); [3]): 10%
- inhibition at 1 µM (SGK (SGK1); [5]): 10%
- Inhibition (%) (SIK3; 1 μM WEL028, 1 h preincubation): 2%
- Inhibition at 1 µM (%) (SIK3; [6]): 0% and 5%
- Inhibition (%) (STK24 (MST3); 1 μM WEL028, 1 h preincubation): 12%
- Inhibition at 1 µM (%) (STK24 (MST3); [4]): 15%
- inhibition at 1 µM (STK24 (MST3); [5]): 9%
- Inhibition at 1 µM (%) (TEC): 2%
- Inhibition at 1 µM (%) (TEC; listed as WEL028, 1 µM): 7%
- inhibition at 1 µM (TEC; [3]): 5%
- Inhibition at 1 µM (%) (TNIK; [6]): 4%
- inhibition at 1 µM (TNIK; [3]): 5%
- inhibition at 1 µM (TNIK; read-out: Inhibition at 1 µM (%), 1 µM, LanthaScreen Binding): 6%
- IC50 (FER^WT): 501 nM
